Experimental data from PMC8119466, “A screen of FDA-approved drugs identifies inhibitors of protein tyrosine phosphatase 4A3 (PTP4A3 or PRL-3)” (Scientific Reports, 2021).
Where two headings read alike, the source gives them in different places.

Columns and labels:
Assay type in all cases: biochemical
recombinant PRL-1 = target: T1, recombinant PRL-1 (Homo sapiens, UniProt Q93096); assay: In vitro phosphatase assay (DiFMUP hydrolysis), PRL-1; also: test concentration or dose not given here
T1 construct: 6xHis (N, cleaved yes); made in house; host or cells: E. coli One Shot BL21 Star
T1 sequence (Q93096 1-173): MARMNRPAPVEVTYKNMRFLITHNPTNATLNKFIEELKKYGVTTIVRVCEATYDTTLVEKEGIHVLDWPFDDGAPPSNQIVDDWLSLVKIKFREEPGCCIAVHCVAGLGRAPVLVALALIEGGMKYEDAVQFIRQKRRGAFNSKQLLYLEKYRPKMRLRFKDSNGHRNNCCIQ

recombinant PRL-2 = target: T2, recombinant PRL-2 (Homo sapiens, UniProt Q12974); assay: In vitro phosphatase assay (DiFMUP hydrolysis), PRL-2;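 also: PRL-2 activity read as DiFMUP hydrolysis after 20 min at room temperature with drug, enzyme first pre-reduced at 4 °C for 20 min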
T2 construct: 6xHis (N, cleaved yes); made in house; host or cells: E. coli One Shot BL21 Star
T2 sequence (Q12974 1-167): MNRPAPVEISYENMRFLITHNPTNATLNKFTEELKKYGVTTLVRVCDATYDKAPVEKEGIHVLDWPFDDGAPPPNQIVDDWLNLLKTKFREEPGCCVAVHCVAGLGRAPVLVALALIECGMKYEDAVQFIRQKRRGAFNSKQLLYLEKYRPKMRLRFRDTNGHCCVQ

recombinant PRL-3 = target: T3, recombinant PRL-3 (Homo sapiens, UniProt O75365); assay: In vitro phosphatase assay (DiFMUP hydrolysis), PRL-3; also: test concentration or dose not given here
T3 construct: 6xHis (N, cleaved yes); made in house; host or cells: E. coli One Shot BL21 Star
T3 sequence (O75365 whole entry): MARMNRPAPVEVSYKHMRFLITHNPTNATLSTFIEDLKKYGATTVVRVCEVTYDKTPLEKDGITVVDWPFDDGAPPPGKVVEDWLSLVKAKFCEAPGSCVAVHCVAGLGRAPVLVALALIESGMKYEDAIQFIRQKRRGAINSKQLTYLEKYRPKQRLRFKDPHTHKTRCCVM

[1] = FDA-approved drug screen, compared to DMSO
[2] = FDA-approved drug screen, activity compared to DMSO

| Compound | % Phosphatase Activity (compared to DMSO) PRL-1 (recombinant PRL-1; [1]) [%] | % Phosphatase Activity (compared to DMSO) PRL-2 (recombinant PRL-2; [1]) [%] | % Phosphatase Activity (compared to DMSO) PRL-3 (recombinant PRL-3; [1]) [%] | further results |
| --- | --- | --- | --- | --- |
| 17-Hydroxyprogesterone | 86 | 77 | 86 |  |
| OC[C@H]1O[C@@H](O[C@@H]2[C@@H](CO)OC(O)(CO)[C@H]2O)[C@H](O)[C@@H](O)[C@H]1O (mixture of isomers) [Lactulose] | 104 | 115 | 85 |  |
| CN(N=O)C(=O)N[C@H]1C(O)O[C@H](CO)[C@@H](O)[C@@H]1O (mixture of isomers) [Streptozotocin (STZ)] |  |  |  | % Phosphatase Activity (compared to DMSO) PRL-1 (recombinant PRL-1; [2]): 96%; % Phosphatase Activity (compared to DMSO) PRL-2 (recombinant PRL-2; [2]): 88%; % Phosphatase Activity (compared to DMSO) PRL-3 (recombinant PRL-3; [2]): 78% |
| Cl.NCC(O)c1ccc(O)cc1 (racemic) [(+,-)-Octopamine HCl] | 110 | 102 | 78 |  |
| O=C1C(CC[S+]([O-])c2ccccc2)C(=O)N(c2ccccc2)N1c1ccccc1 (racemic) [(+/-)-Sulfinpyrazone] | 88 | 95 | 82 |  |
| COC(=O)C1=C(C)NC(C)=C(C(=O)O[C@@H]2CCCN(Cc3ccccc3)C2)[C@@H]1c1cccc([N+](=O)[O-])c1.Cl (racemic) [Benidipine HCl] | 91 | 107 | 94 |  |
| C[N+](C)(C)CC(O)CC(=O)O.[Cl-] (racemic) [DL-Carnitine HCl] | 100 | 94 | 85 |  |
| CC(C)(CO)C(O)C(=O)NCCCO (racemic) [DL-Panthenol] | 109 | 91 | 82 |  |
| CC(CCc1ccc(O)cc1)NCC(O)c1ccc(O)cc1.Cl (racemic) [Ractopamine HCl] | 103 | 113 | 100 |  |
| Cl.N[C@@H]1C[C@H]1c1ccccc1 (racemic) [Tranylcypromine (2-PCPA) HCl] |  |  |  | % Phosphatase Activity (compared to DMSO) PRL-1 (recombinant PRL-1): 111%; % Phosphatase Activity (compared to DMSO) PRL-2 (recombinant PRL-2): 110%; % Phosphatase Activity (compared to DMSO) PRL-3 (recombinant PRL-3): 87% |
| c1ccc(C2CN3CCSC3=N2)cc1 (single isomer, unassigned; (-)) [(-)-Tetramisole] |  |  |  | % Phosphatase Activity (compared to DMSO) PRL-1 (recombinant PRL-1): 93%; % Phosphatase Activity (compared to DMSO) PRL-2 (recombinant PRL-2): 92%; % Phosphatase Activity (compared to DMSO) PRL-3 (recombinant PRL-3): 99% |
| NC(=O)CCC(N)C(=O)O (stereo in doubt) [D-glutamine] | 96 | 80 | 94 |  |
| COc1ccc(C(=O)c2ccccc2O)c(O)c1 [2,2′-Dihydroxy-4-methoxybenzophenone] | 90 | 107 | 79 |  |
| CC1(C)OC(=O)NC1=O [5,5-Dimethyloxazolidine-2,4-dione] | 94 | 94 | 82 |  |
| Cl.NCC(=O)CCC(=O)O [5-Aminolevulinic acid HCl] | 106 | 130 | 86 |  |
| Oc1c(I)cc(Cl)c2cccnc12 [5-Chloro-8-hydroxy-7-iodoquinoline] | 96 | 90 | 71 |  |
